Measured values as given in patent publication US6861416B2, “Oxazinones and methods for their use and synthesis” (Chirologix Pharmaceuticals, Inc., priority 2001, dated 2005).

Experiments:
[1] = system: Micrococcus luteus; experiment: Filter disc bioassay on agar plates seeded with Micrococcus luteus; type: cell-based; conditions: for Zone Size: agar plate
Experimental: Samples of 2-carboxymethyl-5-hydroxy-1,2-oxazin-3-one and penicillin were applied to a filter disc in the amounts indicated in Table 1, below. The discs were applied to agar plates seeded with Micrococcus luteus, and the plates were incubated over night at 37° C.
Samples of 2-[2-carboxypropyl]-5-hydroxy-1,2-oxazin-3-one and desacetoxycephalosporin G were applied to a filter disc in the amounts indicated in Table 2, below. The discs were applied to agar plates seeded with Micrococcus luteus, and the plates were incubated overnight at 37° C.

Q: For `CC(CN1OC=C(O)CC1=O)C(=O)O` (stereo not drawn) [2-[2-carboxypropyl]-5-hydroxy-1,2-oxazin-3-one], which “Zone Size” value ([1]; 12.0 micrograms on filter disc, incubated overnight at 37° C.) is on record?
A: 2.0 cm

Q: What about the “antibacterial activity, times the activity of 2-carboxymethyl-5-hydroxy-1,2-oxazin-3-one” value ([1]; relative to 2-carboxymethyl-5-hydroxy-1,2-oxazin-3-one, from Tables 1 and 2) of the same compound?
A: approximately 50 times

Q: For `O=C(O)CN1OC=C(O)CC1=O` [2-carboxymethyl-5-hydroxy-1,2-oxazin-3-one], which “Zone Size” value ([1]; 100 micrograms on filter disc, incubated over night at 37° C.) is on record?
A: 1.1 cm

Q: And the “Zone Size” value ([1]; 1000 micrograms on filter disc, incubated over night at 37° C.)?
A: 2.0 cm

Q: And the “antibacterial activity (in words)” value ([1]; judged from Tables 1 and 2)?
A: weak antibacterial activity

Q: And the “antibacterial activity, times less than that of penicillin” value ([1]; relative to penicillin, from Tables 1 and 2)?
A: at least 1000 times

Q: Which melting point does the source give for `C[C@H](C(=O)OC(C)(C)C)N1OC[C@@H](O)[C@@H](O)C1=O` [8b, (αR,4R,5R)-2-(α-tert-Butoxycarbonylethyl)-4,5-dihydroxy-1,2-oxazinan-3-one] here?
A: 93 to 94 °C

Q: With `CC1(C)S[C@@H]2[C@H](NC(=O)Cc3ccccc3)C(=O)N2[C@H]1C(=O)O` [Penicillin G, reference compound] as the compound, how does the “Zone Size” value ([1]; 0.1 micrograms on filter disc, incubated over night at 37° C.) read?
A: 1.6 cm

Q: Which “Zone Size” value ([1]; 2.5 micrograms on filter disc, incubated overnight at 37° C.) does the source give for `CC1=C(C(=O)O)N2C(=O)[C@@H](NC(=O)Cc3ccccc3)[C@H]2SC1` [desacetoxycephalosporin G, reference compound] here?
A: 2.5 cm
